This is an account of results in patent publication US5200309A, “Color photographic materials including magenta coupler, carbonamide compound and aniline or amine compound, and methods” (Eastman Kodak Company, priority 1991, dated 1993).

The data set in a line: Potentiometric titration of dispersion pKa of couplers (two-phase aqueous dispersion). In kind it is physicochemical. The text has this: Preferred two-equivalent magenta dye-forming couplers for the practice of this invention include those that have pKa values of less than 10.0 when dispersed together with a coupler solvent. Potentiometric titrations were used to measure pKa values for some of the preferred couplers of the invention as aqueous dispersions. In these two-phase mixtures, the term pKa denotes the aqueous buffer pH at which half of the coupler in the oil phase is ionized or ion paired. Table I lists dispersion pKa values measured with 0.50 M potassium counter ion.

The mark [1] stands for this setting: coupler solvent C5, coupler:solvent weight ratio 1:1, 0.50 M potassium.
Where [2] appears, read: coupler solvent S1, coupler:solvent weight ratio 1:1, 0.50 M potassium.
[3] abbreviates: coupler solvent S2, coupler:solvent weight ratio 1:2, 0.50 M potassium.

Structures are written as SMILES.

With `CCCCCCCCCCCCNS(=O)(=O)c1ccc(NC2=NN(c3c(Cl)cc(Cl)cc3Cl)C(=O)C2Sc2ccccc2NC(=O)C(CC)Oc2ccc(C(C)(C)CC)cc2C(C)(C)CC)c(Cl)c1` (stereo not drawn) [Coupler M4], the “pKa(0.5M K+)” value reads like this: under setting [1], 8.0; under setting [2], 7.6.

On to `CCCCCCCCCCCCCC(=O)Nc1ccc(Cl)c(NC2=NN(c3c(Cl)cc(Cl)cc3Cl)C(=O)C2Sc2ccccc2NC(=O)C(CC)Oc2ccc(C(C)(C)CC)cc2C(C)(C)CC)c1` (stereo not drawn) [Coupler M3], for which the “pKa(0.5M K+)” value is, setting by setting: under setting [1], 8.2; under setting [2], 7.9.

With `CCCCCCCCCCCCNS(=O)(=O)c1ccc(NC2=NN(c3c(Cl)cc(Cl)cc3Cl)C(=O)C2Sc2cc(C(C)(C)CC(C)(C)C)ccc2OCCCC)c(Cl)c1` (stereo not drawn) [Coupler M1], the “pKa(0.5M K+)” value under setting [3] was found to be 8.5.

Consider `CCCCCCCCCCCCCCCC(=O)Nc1ccc(Cl)c(NC2=NN(c3c(Cl)c(Cl)c(Cl)c(Cl)c3Cl)C(=O)C2Sc2ccccc2NC(=O)OCc2ccccc2)c1` (stereo not drawn) [Coupler M7], for which the “pKa(0.5M K+)” value under setting [3] stood at 7.5.

As to `CCCCCCCCCCCCNS(=O)(=O)c1ccc(NC2=NN(c3c(Cl)cc(Cl)cc3Cl)C(=O)C2Sc2ccccc2NC(=O)CCCCCCCCCCC)c(Cl)c1` (stereo not drawn) [Coupler M8], the “pKa(0.5M K+)” value under setting [3] is 7.9.

Regarding `CCCCCCCCCCCCCCCCCCNS(=O)(=O)c1ccc(Cl)c(NC2=NN(c3c(Cl)cc(Cl)cc3Cl)C(=O)C2Sc2cc(C(C)C)ccc2C(C)C)c1` (stereo not drawn) [Coupler M20], the “pKa(0.5M K+)” value by setting is: (coupler solvent C1, coupler:solvent weight ratio 1:2, 0.50 M potassium) 8.9; under setting [3], 8.4.
